# Measured values: patent publication US20250270513A1, “METHOD FOR PRODUCING CULTURED TISSUE, AND PREPARATION FOR EXTERNAL APPLICATION” (National University Corporation Ehime University, priority 2019, published 2025)
# Columns and labels:
# [1] = tested on: human normal skin keratinocytes; experiment: Culture of keratinocytes alone without collagen gel containing fibroblasts (Test Example 1); format: cell-based; settings: 100 mg/mL trehalose in medium, no fibroblast collagen gel
# Protocol: (§1) • (2) Next, the collagen gel (layered dermal cell structure) containing NHDF was pre-cultured for 5 days using a DMEM medium containing 50 μg/ml ascorbic acid, 10 v/v % FCS, and 1 v/v % ABAM. Next, human normal skin keratinocytes suspended in MCDB medium were seeded on the collagen gel surface so as to be 1.28×10^5 cells/cm^2, and a medium obtained by mixing equal amounts of MCDB Type-II medium (Growth Medium 2 in JP-B2-3066624) and EGM was added to an external liquid of the cell culture insert and the inside of the insert, followed by culturing at 37° C. for 2 days.
# On the other hand, when 100 mg/mL trehalose was added to the medium of (2) without collagen gel containing fibroblasts and culture was performed with keratinocytes alone, formation of epithelial tissue layer was not observed as in the absence of trehalose.
# [2] = tested on: ERK1/2 (Thr202/Tyr204 phosphorylated); experiment: Western blotting of phosphorylated ERK1/2 in fibroblasts (Test Example 3-1); format: cell-based, human; settings: 0, 10, 100 mg/mL trehalose in medium, 24 hours
# Protocol: (§2) The cells were further DNA-stained with PI and subjected to FCM, and the proportion of each cell cycle was examined.
# (§3) (3) Furthermore, proteins were extracted from the fibroblasts obtained in (1) using RIPA buffer (1% protein inhibitor (manufactured by SIGMA)+Phosphatase Inhibitor cocktail (manufactured by SIGMA)). Then, 10 μg of protein per sample was separated by SDS-PAGE by a conventional method, transferred to a PVDF membrane, and then subjected to Western blotting. Phosphorylated ERK1/2 and phosphorylated AKT were detected by ECL Prime Western Blotting Detection Reagent (manufactured by GE Healthcare), using Phospho-p44/p42 MAPK (Erk1/2) (Thr202/Tyr204) (D13.14.4E) XP Rabbit mAb (#4300, Cell Signaling) and Phospho-Akt (Ser473) antibody (#9271, manufactured by Cell Signaling Technology) as a primary antibody, and an anti-rabbit IgG antibody and an anti-mouse IgG antibody manufactured by PROMEGA were used as secondary antibodies, and visualized by Image Quant LAS4010 (manufactured by GE Healthcare).
# [3] = tested on: FGF2 mRNA; experiment: qPCR of FGF2 gene in monolayer fibroblasts (Test Example 3-2); format: cell-based, human; settings: for FGF2 expression level compared to control without trehalose (vehicle): after 3 hours of culture
# Protocol: • (1) NHDF was seeded on a cell culture dish containing 1% FCS and 1% ABAM-containing DMEM medium containing 0, 30, and 100 mg/mL trehalose so as to be 5.5×10^4 cells/cm^2, and cultured for 3, 24, or 48 hours. • (2) Cells under each condition were collected, and mRNA was extracted using RNeasy Mini Kit (manufactured by QIAGEN). CDNA was prepared from mRNA using iScript cDNA Synthesis kit (manufactured by B10-RAD Laboratories). The method was performed according to each manual. Next, quantitative PCR (qPCR) of FGF2 gene was performed. For the reaction, Fast Start Universal Probe Master (Rox) (Roche) and StepOnePlue Real time PCR system were used. As a primer set, TaqMan probes for FGF2 (ThermoFisher Scientific) described in Table 5 were used. GAPDH was used as a reference gene. The number of samples used in each condition was 3.
# [4] = tested on: human normal skin keratinocytes on collagen gel containing normal human skin fibroblasts (NHDF); experiment: Three-dimensional cultured skin on a sugar-containing dermal cell structure (Test Example 1); format: cell-based
# Protocol: Subsequently, about 1 mL of the gel obtained was poured into a transwell-collagen coated insert (catalog number: 3492, manufactured by Costar; pore size: 3.0 μm, surface area: 4.67 cm^2), which is a cell culture insert, and allowed to stand in an incubator for 5 minutes or more. 5 mL of DMEM containing 10 v/v % FCS and 1 v/v % ABAM (Antibiotics-Antimycotic solution, 100×, manufactured by ThermoFisher Scientific Inc.) in which normal human skin fibroblasts (NHDF, manufactured by Cambrex Corporation) were suspended at a cell density of 5×10^5 cells/mL was added to 29 mL of the gel solution I. About 3.5 mL of a gel solution containing the cells was added to the cell culture insert, and the mixture was allowed to stand in a 37° C. incubator for 30 minutes to gel.
# as §1
# • (3) The medium was replaced with a cornification medium (CM medium), and the cell culture insert was placed such that a porous membrane of the cell culture insert was located at a gas-liquid interface of the cornification medium. In this state, the cells were subjected to gas-liquid interface culture at 37° C. for 7 to 14 days to induce differentiation, thereby obtaining three-dimensional cultured skin. The medium was replaced every two days from the start of the culture.
# [5] = tested on: three-dimensional cultured skin (dermal tissue layer fibroblasts); experiment: Staining test of tissue sections of three-dimensional cultured skin (Test Example 1); format: cell-based, human
# Source text: • (4) The obtained tissue sections of each three-dimensional cultured skin were stained with HE, EVG, HABP, K10, K5, Alcian blue, SMA and Ki67 by a conventional method. For Ki67 staining, a Ki67 antibody (manufactured by Novocastra Laboratories Ltd) and a secondary antibody (manufactured by Vector Laboratories) were used.
# [6] = tested on: AKT (Ser473 phosphorylated); experiment: Western blotting of phosphorylated AKT in fibroblasts (Test Example 3-1); format: cell-based, human; settings: 0, 10, 100 mg/mL trehalose in medium, 24 hours
# Protocol: as §2, §3
# [7] = tested on: wound with a diameter of 6 mm on the back of C57BL/6 mice; experiment: In vivo test of effect of trehalose on skin wound (Test Example 6); set-up: species or system mouse
# Protocol: In order to verify an effect of trehalose on skin wounds, in vivo test using mice was performed. The method is shown below. • (1) 15 week old C57BL/6 mice were anesthetized, the back was extensively depilated, then the skin of the back was pinched and overlaid, and a wound with a diameter of 6 mm was prepared with a biopsy trepan. • (2) Wound mice were divided into 2 groups of 6 mice each, and 100 mg of an agent composed only of Vanicream (Pharmaceutical Specialties, INC) as a base was applied to a control group, and 100 mg of an agent composed of 10% by mass trehalose and Vanicream as a base was applied to a trehalose treatment group once a day. • (3) Images of each wound up to 9 days after wound formation and the area of each wound were recorded, respectively.
# [8] = tested on: β-actin; experiment: Western blotting of β-actin in fibroblasts (Test Example 3-1); format: cell-based, human; settings: 0, 10, 100 mg/mL trehalose in medium, 24 hours
# Protocol: as §2, §3
# [9] = 100 mg/mL trehalose, after 24 hours
# [10] = 100 mg/mL trehalose, after 48 hours
# [11] = culture to which trehalose was added
smiles,measurement,setting,value
"OC[C@H]1O[C@H](O[C@H]2O[C@H](CO)[C@@H](O)[C@H](O)[C@H]2O)[C@H](O)[C@@H](O)[C@@H]1O [trehalose, α, α-trehalose]",formation of epithelial tissue layer,[1],not observed
same,phosphorylation of ERK1/2,[2],promoted as the concentration of trehalose in the medium increases
same,FGF2 expression level compared to control without trehalose (vehicle),[3]; 30 mg/mL trehalose,increase
same,expression level of FGF2 mRNA,"[3]; 30 mg/mL trehalose, after 48 hours",slightly increased
same,FGF2 expression level compared to control without trehalose (vehicle),[3]; 100 mg/mL trehalose,increase
same,FGF2 mRNA expression level compared to that at the start of the culture,[3]; [9],still also increased
same,FGF2 mRNA expression level compared to the control,[3]; [9],significantly increased
same,FGF2 mRNA expression level compared to that at the start of the culture,[3]; [10],still also increased
same,FGF2 mRNA expression level compared to the control,[3]; [10],significantly increased
same,area of the epithelial tissue layer formed,"[4]; 10 mg/mL trehalose added to collagen gel containing fibroblasts, compared to no trehalose",slightly enlarged
same,area of the epithelial tissue layer formed,[4]; 100 mg/mL trehalose added to collagen gel containing fibroblasts,extended to the outer edge of the insert and further expanded to protrude to the outside of the insert
same,contraction of the collagen gel,[4]; [11],not observed
same,wrinkles and rumples of the sheet-like epithelial tissue layer,[4]; [11],without wrinkles and rumples
same,Ki67 positive cells in the dermal tissue layer,"[5]; 0, 10, 100 mg/mL trehalose",increased as the concentration of trehalose increased
same,difference in staining pattern depending on the concentration of trehalose,"[5]; HE, EVG, HABP, K10, K5, Alcian blue, SMA stains (all except Ki67), 0, 10, 100 mg/mL",no difference
same,phosphorylation of AKT,[6],promoted as the concentration of trehalose in the medium increases
same,recovery of wounds compared to control group,"[7]; 100 mg of agent of 10% by mass trehalose and Vanicream, applied once a day",significantly faster
same,day on which wound epithelialized,"[7]; 10% by mass trehalose in Vanicream, once a day",4 days
same,wound area,"[7]; 10% by mass trehalose in Vanicream, once a day, after 1 day",remarkably reduced
same,"difference between groups in wound area (two-way ANOVA, p<0.001)","[7]; each point of days 2 to 6, n=6 in each group",significant differences
same,synthesis amount of β-actin,[8],increased depending on the amount of trehalose
